Experimental data: patent US4923965A, “Tripeptides of N^3 -4-methoxyfumaryl-L-2,3-diaminopropanoic acid” (Politechnika Gdanska, priority 1988, dated 1990)
Converted amounts (≈) assume the structure as drawn. Counter-ions that a name gives are not always drawn.

Key:
[1] = MIC stated in the synthesis examples; type: cell-based; settings: strain and medium not given
[2] = tested on: Candida albicans ATCC 26278; assay: minimum inhibitory concentration for elected strain; type: cell-based
Protocol: The in vitro activity has been evaluated by the method of serial dilutions in parallel on solid YNB medium and on YNB w/o+AN medium, where the abbreviation AN means 200 mg of sodium glutamate, 10 mg of L-histidine, 20 mg of DL-methionine, 20 mg DL-tryptophane, 10 g of glucose and 15 g of agar-agar per 1 liter of the YNB medium. The application of the medium modified in such a manner was made necessary by the known phenomenon of lower biological activity in the media containing ammonium sulphate as a source of nitrogen.

SMILES | MIC [1] | minimum inhibitory concentration, MIC [2]
COC(=O)/C=C/C(=O)NC[C@H](N)C(=O)N[C@@H](CCSC)C(=O)N[C@@H](C)C(=O)O [Example I, N^3-4-methoxyfumaryl-L-2,3-diaminopropanoyl-L-methionyl-L-aniline] | 0.1 µg/mL (≈ 0.239 µM) | 
COC(=O)/C=C/C(=O)NC[C@H](NC(=O)[C@@H](N)CCSC)C(=O)N[C@@H](CCSC)C(=O)O [VIII, N^2 -L-methionyl, n^3-4-methoxyfumaryl-L-2,3-diaminopropanoyl-L-methonine hydrochloride] | 0.8 µg/mL | 
CCC[C@H](NC(=O)[C@@H](N)CCSC)C(=O)N[C@@H](CNC(=O)/C=C/C(=O)OC)C(=O)O [XVI, N^2 -L-methionyl-L-norvalyl, N^3-4-methoxyfumaryl-L-2,3-diaminopropanoic hydrochloride] | 0.8 µg/mL | 0.4 µg/mL
CCC[C@H](NC(=O)[C@@H](N)CCCCN)C(=O)N[C@@H](CNC(=O)/C=C/C(=O)OC)C(=O)O [XXII, N^2 --L-lysyl-L-norvalyl-N^3-4-methoxyfumaryl-L-2,3-diaminopropanoic dihydrochloride] |  | 0.02 µg/mL
